Assay results as given in patent US4031239A, “Cyclopropanecarboxylates for systemic control of ectoparasites” (American Cyanamid Company, priority 1975, dated 1977).

Key:
Stomoxys calcitrans = experiment: Animal systemic insecticidal activity, flies fed on mice dosed by gavage (Example 3); assay type: in vivo, Stomoxys calcitrans (stable flies) fed on mice; conditions: 18 hours feeding, mortality at 24 hours
Method: To determine the effectiveness of the compounds of the invention as animal systemic insecticidal agents, test compounds are mixed in 10% acetone-90% sesame oil and administered by gavage to mice each at 25, 100 and/or 400 mg/kg of animal body weight.
Adult, one day old, unfed flies Stomoxys calcitrans are then exposed to the mice for 18 hours to permit them to feed on said mice. Mortality counts are made at 24 hours and data obtained are reported below as percent control of stable flies.

[1] = test system: Rhipicephalus sanguineus; Dermacentor variabilis; experiment: Systemic ixodicidal activity by the methods of the Examples, stated for both tick species together; assay type: in vivo; conditions: trans and cis; no figures given
Excerpt: (§1) Albino guinea pigs are housed individually and fed guinea pig chow and water ad libitum. One leaf of cabbage per day is also given to each guinea pig.
(§2) To the shaved back of each guinea pig, a capsule made from a 2 inch spud gasket, with the base ground down to provide greater flexibility, is glued using 3M adhesive no. 8001. Five male and five female adult Rhipicephalus sanguineus ticks are placed inside the capsule and allowed to attach to the guinea pig. A gauze material is fastened over the top of the gasket to prevent the ticks from escaping.
(§3) The guinea pigs are given a daily oral dose by gelatin capsule of either 400 or 100 mg per kilogram body weight of the test compound. […]

Dermacentor variabilis = experiment: Systemic ixodicidal activity, daily oral dosing of tick-infested guinea pigs (Example 2); assay type: in vivo
Rhipicephalus sanguineus = experiment: Systemic ixodicidal activity, daily oral dosing of tick-infested guinea pigs (Example 1); assay type: in vivo
Excerpt: as §1
The diet employed in these tests is as follows:
Crude protein not less than 18.0%
Crude fat not less than 4.0%
Crude fiber not more than 16.0%
Added minerals not more than 3.5%
and consists of the following ingredients: Ground wheat, ground yellow corn, dried skimmed milk, soybean meal, dehydrated alfalfa meal, cane molasses, wheat middlings, animal fat preserved with BHA, vitamin B12 supplement; riboflavin supplement, cholin chloride, calcium pantothenate, thiamin, niacin, folic acid, ascorbic acid, vitamin A supplement, D activated sterol (source of Vitamin D3), methionine hydroxy analogue calcium, pyridoxine hydrochloride, vitamin E supplement, dicalcium phosphate, calcium carbonate, iodized salt, copper oxide sulfate, iron sulfate, iron oxide, manganous oxide, cobalt carbonate, zinc oxide.
as §2, §3

[2] = Rhipicephalus sanguineus, in Cavia porcellus, po, read-out: % Tick Mortality

Row | Structure (SMILES) | % Control of Stable Flies (Stomoxys calcitrans; 25 mg/kg by gavage) | % Control of Stable Flies (Stomoxys calcitrans; 100 mg/kg by gavage) | % Control of Stable Flies (Stomoxys calcitrans; 400 mg/kg by gavage) | further results
1 | CC(C)=CC1C(C(=O)OC(C#N)c2cccc(Oc3ccccc3)c2)C1(C)C (stereo not shown) | 30% | 80% | 100% | –
2 | CC(C)=CC1C(C(=O)OCc2cccc(Oc3ccccc3)c2)C1(C)C (stereo not shown) [cyclopropanecarboxylic acid, 2,2-dimethyl-3-(2-methylpropenyl)-m-phenoxybenzyl ester] | – | – | – | ixodicidal results compared with those in the Examples [1]: Results comparable to those in the Examples
3 | CC1(C)C(C=C(Cl)Cl)C1C(=O)OCc1cccc(Oc2ccccc2)c1 (stereo not shown) [drawing 8] | 36% | 100% | – | –
4 | CC1(C)C(C=C(Cl)Cl)C1C(=O)OC(C#N)c1cccc(Oc2ccccc2)c1 (stereo not shown) | 63% | 80% | 96% | –
5 | CC1(C)C(C=C(Cl)Cl)C1C(=O)OCc1cccc(Oc2ccccc2)c1 (stereo not shown) [Cyclopropanecarboxylic acid, 3-(2,2-dichlorovinyl)-2,2-dimethyl-, m-phenoxybenzyl ester] | – | – | – | susceptibility of ticks to the test compound (Dermacentor variabilis; Dermacentor variabilis, compared with Example 1 (Rhipicephalus sanguineus)): somewhat less susceptible; mortality at 100 mg/kg (Dermacentor variabilis; Dermacentor variabilis, in Cavia porcellus, daily oral dose 100 mg/kg, guinea pigs): 0%; mortality at 400 mg/kg (Dermacentor variabilis; Dermacentor variabilis, in Cavia porcellus, daily oral dose 400 mg/kg, guinea pigs): 80%; time after which ticks become moribund and die shortly thereafter (Dermacentor variabilis; method of Example 1, daily oral dose, guinea pigs): about 5 days
6 | CC1(C)C(C=C(Cl)Cl)C1C(=O)OCc1cccc(Oc2ccccc2)c1 (mixture of isomers) [Cyclopropanecarboxylic acid, 3-(2,2-dichlorovinyl)-2,2-dimethyl-m-phenoxybenzyl ester] | – | – | – | mortality at 100 mg/kg (Rhipicephalus sanguineus; [2]): 80%; mortality at 400 mg/kg (Rhipicephalus sanguineus; [2]): 100%; time after initial treatment during which ticks do not appear to be affected (then moribund and die shortly thereafter) (Rhipicephalus sanguineus; daily oral dose 400 or 100 mg/kg, guinea pigs, slight color changes and some reduction in size excepted): about 3 days
